Values after ≈ are worked out from the molar mass of the structure shown. Active and inactive are the calls of the source. The rule behind the calls is not given here. Positions of bridges follow the written chain, without caps; N, C: chain ends. Residues, ends and D or L forms follow the SMILES beside them. Groups on a side chain read outwards from the residue. Chains are numbered I, II in the order given. *: point of attachment. Lauroyl = CCCCCCCCCCCC(=O)*; Octanoyl = CCCCCCCC(=O)*; Butyryl = CCCC(=O)*
What was measured:
Candida albicans [1] = assay: Antifungal activity against fluconazole-resistant Candida albicans 56214 infected in ICR mouse assessed as reduction in TNF-alpha expression in skin wound at 1 mg/ml administered topically bid for 3 days starting at 12 hrs post-infection and measured after 7 days by immunofluorescence analysis; format: functional, organism-based; details: time 7.0 day
Candida albicans [2] = assay: Antifungal activity against fluconazole-resistant Candida albicans 56214 infected in ICR mouse assessed as elimination of fungal hyphae on the infected skin at 1 mg/ml administered topically bid for 3 days starting at 12 hrs post-infection and measured after 7 days by PAS staining; format: functional, organism-based; details: time 7.0 day
Candida albicans [3] = assay: Antifungal activity against fluconazole-resistant Candida albicans 56214 infected in ICR mouse assessed as reduction in IL-6 expression in skin wound at 1 mg/ml administered topically bid for 3 days starting at 12 hrs post-infection and measured after 7 days by immunofluorescence analysis; format: functional, organism-based; details: time 7.0 day
Candida albicans [4] = assay: (§1) Antifungal activity against fluconazole-resistant Candida albicans 56214 infected in ICR mouse assessed as reduction in severity of skin infection at 1 mg/ml administered topically bid for 3 days starting at 12 hrs post-infection and measured after 7 days by PAS staining based analysis; format: functional, organism-based; details: time 7.0 day
Candida albicans [5] = assay: Antifungal activity against fluconazole-resistant Candida albicans 56214 infected in ICR mouse assessed as wound healing with appearance of new skin tissue at 1 mg/ml administered topically bid for 3 days starting at 12 hrs post-infection and measured for 6 days; format: functional, organism-based; details: time 6.0 day
Candida albicans [6] = assay: as §1, with “in oxidative stress by measuring decrease in ROS accumulation in” for “in severity of”, “skin wounds” for “skin infection”, “by fluorescence” for “by PAS”; format: functional, organism-based; details: time 7.0 day
[7] = Toxicity against human RBC assessed as hemolysis rate at 128 ug/ml incubated for 1 hr; format: cell-based, Erythrocyte; details: red blood cells (RBC), dose 128 µg/ml, read-out: Activity
Candida albicans [8] = assay: Antifungal activity against Candida albicans 2.3989 assessed as inhibition of fungal growth incubated for 48 hrs; format: functional
Candida albicans [9] = assay: Antifungal activity against Candida albicans SP 3903 assessed as inhibition of fungal growth incubated for 48 hrs; format: functional
Candida albicans [10] = assay: Antifungal activity against Candida albicans 14936 assessed as inhibition of fungal growth incubated for 48 hrs; format: functional
HEK-293T = assay: Cytotoxicity against human HEK293T cells assessed as cell viability at 8 to 128 ug/ml incubated for 4 hrs by MTT assay; format: toxicity, cell-based; details: dose 8-128 µg/ml
Candida albicans [11] = assay: Antifungal activity against fluconazole-resistant Candida albicans 56214 assessed as inhibition of fungal growth incubated for 48 hrs; format: functional
Candida albicans [12] = assay: Antifungal activity against Candida albicans SP 3931 assessed as inhibition of fungal growth incubated for 48 hrs; format: functional
Candida albicans [13] = assay: Antifungal activity against Candida albicans 58288 assessed as inhibition of fungal growth incubated for 48 hrs; format: functional
[14] = Cytotoxicity against human HEK293T cells assessed as cell survival rate at 128 ug/ml incubated for 4 hrs by MTT assay; format: toxicity, cell-based, HEK-293T; details: dose 128 µg/ml, read-out: Activity
Candida albicans [15] = assay: Antifungal activity against Candida albicans SP 3902 assessed as inhibition of fungal growth incubated for 48 hrs; format: functional
Candida albicans [16] = assay: Antifungal activity against Candida albicans cgmcc 2.2086 assessed as inhibition of fungal growth incubated for 48 hrs; format: functional
Candida albicans [17] = assay: Antifungal activity against Candida albicans 17546 assessed as inhibition of fungal growth incubated for 48 hrs; format: functional
[18] = Cytotoxicity against mouse RAW264.7 cells assessed as cell survival rate at 128 ug/ml incubated for 4 hrs by MTT assay; format: toxicity, cell-based; details: dose 128 µg/ml, read-out: Activity

| SMILES | Activity (Candida albicans [1]) | Activity (Candida albicans [2]) | Activity (Candida albicans [3]) | Activity (Candida albicans [4]) | Activity (Candida albicans [5]) | Activity (Candida albicans [6]) | hemolysis at 1 h, 128 ug/ml [7] | MIC (Candida albicans [8]) | MIC (Candida albicans [9]) | MIC (Candida albicans [10]) | Activity (HEK-293T) | MIC (Candida albicans [11]) | MIC (Candida albicans [12]) | MIC (Candida albicans [13]) | viability at 4 h, 128 ug/ml [14] | MIC (Candida albicans [15]) | MIC (Candida albicans [16]) | MIC (Candida albicans [17]) | viability at 4 h, 128 ug/ml [18] |
| --- | --- | --- | --- | --- | --- | --- | --- | --- | --- | --- | --- | --- | --- | --- | --- | --- | --- | --- | --- |
| C[C@@H]1[C@H](O)[C@@H](C)/C=C/C=C/C=C/C=C/C=C/C=C/C=C/[C@H](O[C@@H]2O[C@H](C)[C@@H](O)[C@H](N)[C@@H]2O)C[C@@H]2O[C@](O)(C[C@@H](O)C[C@@H](O)[C@H](O)CC[C@@H](O)C[C@@H](O)CC(=O)O[C@H]1C)C[C@H](O)[C@H]2C(=O)O | Active | Active | Active | Active | Active | Active |  |  |  |  |  |  |  |  |  |  |  |  |  |
| CCCC(=O)NCC(=O)NCC(=O)NCC(=O)N[C@@H](CCCCNC(=O)[C@@H]1CCCN1C(=O)[C@H](CCCNC(=N)N)NC(=O)[C@@H]1CCCN1C(=O)[C@@H](N)CCCNC(=N)N)C(=O)N[C@@H](CCCCNC(=O)[C@@H]1CCCN1C(=O)[C@H](CCCNC(=N)N)NC(=O)[C@@H]1CCCN1C(=O)[C@@H](N)CCCNC(=N)N)C(=O)N[C@@H](CCCNC(=N)N)C(=O)N1CCC[C@H]1C(=O)N[C@@H](CCCNC(=N)N)C(=O)N1CCC[C@H]1C(N)=O (Butyryl-GGGK([Pro-Arg-Pro-Arg])K([Pro-Arg-Pro-Arg])RPRP-NH2) |  |  |  |  |  |  | < 2% | > 128 µM | > 128 µM | > 128 µM | Non-toxic | > 128 µM | > 128 µM | > 128 µM | 95% | > 128 µM | > 128 µM | > 128 µM |  |
| CCCCCCCCCCCC(=O)NCC(=O)NCC(=O)NCC(=O)N[C@@H](CCCCNC(=O)[C@@H]1CCCN1C(=O)[C@H](CCCNC(=N)N)NC(=O)[C@@H]1CCCN1C(=O)[C@H](CCCNC(=N)N)NC(=O)[C@@H]1CCCN1C(=O)[C@@H](N)CCCNC(=N)N)C(=O)N[C@@H](CCCCNC(=O)[C@@H]1CCCN1C(=O)[C@H](CCCNC(=N)N)NC(=O)[C@@H]1CCCN1C(=O)[C@H](CCCNC(=N)N)NC(=O)[C@@H]1CCCN1C(=O)[C@@H](N)CCCNC(=N)N)C(=O)N[C@@H](CCCNC(=N)N)C(=O)N1CCC[C@H]1C(=O)N[C@@H](CCCNC(=N)N)C(=O)N1CCC[C@H]1C(=O)N[C@@H](CCCNC(=N)N)C(=O)N1CCC[C@H]1C(N)=O (I: Lauroyl-GGGKKRPRPRP-NH2 / II: H-RPRPRP / III: H-RPRPRP; amide I:4-II:C, I:5-III:C) |  |  |  |  |  |  | < 2% | 64 µM (≈ 186 µg/mL) | 8 µM (≈ 23.3 µg/mL) | 16 µM (≈ 46.5 µg/mL) | Non-toxic | 8 µM (≈ 23.3 µg/mL) | 32 µM (≈ 93 µg/mL) | 32 µM (≈ 93 µg/mL) | 95% | 8 µM (≈ 23.3 µg/mL) | 16 µM (≈ 46.5 µg/mL) | 32 µM (≈ 93 µg/mL) | 50% |
| CCCCCCCC(=O)NCC(=O)NCC(=O)NCC(=O)N[C@@H](CCCCNC(=O)[C@@H]1CCCN1C(=O)[C@H](CCCNC(=N)N)NC(=O)[C@@H]1CCCN1C(=O)[C@H](CCCNC(=N)N)NC(=O)[C@@H]1CCCN1C(=O)[C@@H](N)CCCNC(=N)N)C(=O)N[C@@H](CCCCNC(=O)[C@@H]1CCCN1C(=O)[C@H](CCCNC(=N)N)NC(=O)[C@@H]1CCCN1C(=O)[C@H](CCCNC(=N)N)NC(=O)[C@@H]1CCCN1C(=O)[C@@H](N)CCCNC(=N)N)C(=O)N[C@@H](CCCNC(=N)N)C(=O)N1CCC[C@H]1C(=O)N[C@@H](CCCNC(=N)N)C(=O)N1CCC[C@H]1C(=O)N[C@@H](CCCNC(=N)N)C(=O)N1CCC[C@H]1C(N)=O (I: Octanoyl-GGGKKRPRPRP-NH2 / II: H-RPRPRP / III: H-RPRPRP; amide I:4-II:C, I:5-III:C) |  |  |  |  |  |  | < 2% | 64 µM (≈ 182 µg/mL) | 8 µM (≈ 22.8 µg/mL) | 4 µM (≈ 11.4 µg/mL) | Non-toxic | 8 µM (≈ 22.8 µg/mL) | 16 µM (≈ 45.6 µg/mL) | 8 µM (≈ 22.8 µg/mL) | 95% | 16 µM (≈ 45.6 µg/mL) | 2 µM (≈ 5.7 µg/mL) | 4 µM (≈ 11.4 µg/mL) |  |
| CCCCCCCCCCCC(=O)NCC(=O)NCC(=O)NCC(=O)N[C@@H](CCCCNC(=O)[C@@H]1CCCN1C(=O)[C@H](CCCNC(=N)N)NC(=O)[C@@H]1CCCN1C(=O)[C@@H](N)CCCNC(=N)N)C(=O)N[C@@H](CCCCNC(=O)[C@@H]1CCCN1C(=O)[C@H](CCCNC(=N)N)NC(=O)[C@@H]1CCCN1C(=O)[C@@H](N)CCCNC(=N)N)C(=O)N[C@@H](CCCNC(=N)N)C(=O)N1CCC[C@H]1C(=O)N[C@@H](CCCNC(=N)N)C(=O)N1CCC[C@H]1C(N)=O (Lauroyl-GGGK([Pro-Arg-Pro-Arg])K([Pro-Arg-Pro-Arg])RPRP-NH2) |  |  |  |  |  |  | < 2% | 64 µM (≈ 137 µg/mL) | 64 µM (≈ 137 µg/mL) | 32 µM (≈ 68.7 µg/mL) | Non-toxic | 64 µM (≈ 137 µg/mL) | 64 µM (≈ 137 µg/mL) | 64 µM (≈ 137 µg/mL) | 95% | 32 µM (≈ 68.7 µg/mL) | 16 µM (≈ 34.3 µg/mL) | 32 µM (≈ 68.7 µg/mL) |  |
| CCCCCCCC(=O)NCC(=O)NCC(=O)NCC(=O)N[C@@H](CCCCNC(=O)[C@@H]1CCCN1C(=O)[C@H](CCCNC(=N)N)NC(=O)[C@@H]1CCCN1C(=O)[C@@H](N)CCCNC(=N)N)C(=O)N[C@@H](CCCCNC(=O)[C@@H]1CCCN1C(=O)[C@H](CCCNC(=N)N)NC(=O)[C@@H]1CCCN1C(=O)[C@@H](N)CCCNC(=N)N)C(=O)N[C@@H](CCCNC(=N)N)C(=O)N1CCC[C@H]1C(=O)N[C@@H](CCCNC(=N)N)C(=O)N1CCC[C@H]1C(N)=O (Octanoyl-GGGK([Pro-Arg-Pro-Arg])K([Pro-Arg-Pro-Arg])RPRP-NH2) |  |  |  |  |  |  | < 2% | > 128 µM | > 128 µM | > 128 µM | Non-toxic | > 128 µM | > 128 µM | > 128 µM | 95% | > 128 µM | > 128 µM | > 128 µM |  |
| OC(Cn1cncn1)(Cn1cncn1)c1ccc(F)cc1F [FLUCONAZOLE] |  |  |  |  |  |  |  | 4 µM (≈ 1.23 µg/mL) | 2 µM (≈ 0.613 µg/mL) | 2 µM (≈ 0.613 µg/mL) |  | > 128 µM | 2 µM (≈ 0.613 µg/mL) | 8 µM (≈ 2.45 µg/mL) |  | 4 µM (≈ 1.23 µg/mL) | 4 µM (≈ 1.23 µg/mL) | 2 µM (≈ 0.613 µg/mL) |  |

From ChEMBL document CHEMBL6121051, “Dendritic Antifungal Peptides as Potent Agents against Drug-Resistant Candida albicans and Biofilm” (J Med Chem, 2025)
